# In the supplement of paper PMC13380429:
# Columns and labels:
# Conditions in all cases: 72 h
# [1] = system: HepG2; test: relative viability EC50 (midpoint between 100% and the lowest measured viability); higher = less toxic
# [2] = system: Calu-3; test: as above
# [3] = system: Vero E6; test: as above
# [4] = system: U2OS; test: as above
# [5] = system: Caco-2; test: as above
# [6] = system: HepG2; test: cell viability relative to DMSO; higher = less toxic
# [7] = system: Calu-3; test: as above
# [8] = system: Vero E6; test: as above
# [9] = system: U2OS; test: as above
# [10] = system: Caco-2; test: as above
# [11] = system: HepG2; test: drug sensitivity score (DSS) for viability; higher = more toxic; extreme values may be limits of the assay
# [12] = system: Calu-3; test: as above
# [13] = system: Vero E6; test: as above
# [14] = system: U2OS; test: as above
# [15] = system: Caco-2; test: as above
Compound,relative viability EC50 [1],relative viability EC50 [2],relative viability EC50 [3],relative viability EC50 [4],relative viability EC50 [5],cell viability ([6]; 1 nM),cell viability ([6]; 10 nM),cell viability ([6]; 100 nM),cell viability ([6]; 1000 nM),cell viability ([6]; 10000 nM),cell viability ([7]; 1 nM),cell viability ([7]; 10 nM),cell viability ([7]; 100 nM),cell viability ([7]; 1000 nM),cell viability ([7]; 10000 nM),cell viability ([8]; 1 nM),cell viability ([8]; 10 nM),cell viability ([8]; 100 nM),cell viability ([8]; 1000 nM),cell viability ([8]; 10000 nM),cell viability ([9]; 1 nM),cell viability ([9]; 10 nM),cell viability ([9]; 100 nM),cell viability ([9]; 1000 nM),cell viability ([9]; 10000 nM),cell viability ([10]; 1 nM),cell viability ([10]; 10 nM),cell viability ([10]; 100 nM),cell viability ([10]; 1000 nM),cell viability ([10]; 10000 nM),drug sensitivity score [11],drug sensitivity score [12],drug sensitivity score [13],drug sensitivity score [14],drug sensitivity score [15]
CCCN(CCc1cccs1)[C@H]1CCc2c(O)cccc2C1 [rotigotine],> 10 µM,> 10 µM,> 10 µM,> 10 µM,> 10 µM,94.1%,91.7%,87%,107%,102%,105%,100%,103%,100%,99.6%,93.4%,97%,90.1%,98.5%,98.7%,95%,98%,98.4%,97%,96.6%,98.7%,95.7%,103%,101%,103%,0,0,0,0,0
CC(=O)OCC(=O)NCCCOc1cccc(CN2CCCCC2)c1 [roxatidine-acetate],> 10 µM,> 10 µM,> 10 µM,> 10 µM,> 10 µM,94.3%,107%,95.5%,95.4%,91.1%,107%,111%,103%,99.5%,99.8%,106%,106%,99.1%,103%,99.2%,96%,95%,98.7%,93.9%,97.6%,103%,91.5%,97.1%,101%,93.9%,0,0,0,0,0
CN/C(=N\c1ccc(C2=NNC(=O)CC2C)cc1)NC#N (stereo not given) [siguazodan],> 10 µM,> 10 µM,> 10 µM,> 10 µM,> 10 µM,114%,91.1%,104%,107%,105%,102%,100%,98.9%,102%,98.6%,103%,104%,104%,98.9%,105%,103%,103%,97.6%,105%,99.7%,105%,97.2%,97.2%,96.6%,90.6%,0,0,0,0,0
O=NO [sodium-nitrite],> 10 µM,> 10 µM,> 10 µM,> 10 µM,> 10 µM,105%,102%,97.4%,98%,101%,94.3%,100%,102%,94.8%,91.8%,106%,113%,95.2%,103%,99.2%,95.4%,97.1%,100%,94.2%,97.4%,87.7%,93.5%,94%,92.3%,97.3%,0,0,0,0,0
C[C@@H]1CN(c2c(F)c(N)c3c(=O)c(C(=O)O)cn(C4CC4)c3c2F)C[C@H](C)N1 [sparfloxacin],> 10 µM,> 10 µM,> 10 µM,> 10 µM,> 10 µM,110%,98.6%,111%,94.7%,92.5%,97.6%,93%,106%,110%,97.5%,98.6%,103%,103%,98.6%,96%,101%,102%,95.9%,101%,99%,96.3%,101%,95.1%,93.4%,98%,0,0,0,0,0
CC(=O)S[C@@H]1CC2=CC(=O)CC[C@]2(C)[C@H]2CC[C@@]3(C)[C@@H](CC[C@@]34CCC(=O)O4)[C@H]12 [spironolactone],> 10 µM,> 10 µM,> 10 µM,> 10 µM,> 10 µM,104%,99.7%,110%,107%,107%,90.7%,95.4%,99.1%,94.5%,102%,101%,97.2%,97.1%,88.7%,102%,92.9%,98.6%,97.4%,101%,102%,95.1%,96.7%,100%,99.6%,102%,0,0,0,0,0
C[N+](C)(C)CCOC(=O)CCC(=O)OCC[N+](C)(C)C [succinylcholine-chloride],> 10 µM,> 10 µM,> 10 µM,> 10 µM,> 10 µM,106%,97.2%,106%,93.3%,102%,101%,103%,101%,94.8%,106%,108%,95.8%,102%,89.7%,102%,98.7%,103%,101%,101%,102%,103%,97.3%,99.9%,97.2%,104%,0,0,0,0,0
Cc1ccccc1/N=N/c1ccc(/N=N/c2c(O)ccc3ccccc23)c(C)c1 [sudan-IV],> 10 µM,> 10 µM,> 10 µM,> 10 µM,> 10 µM,96.3%,111%,104%,81.2%,92.7%,98.2%,107%,96.6%,107%,95.2%,104%,100%,104%,110%,87.4%,97.8%,102%,93.3%,95.3%,90.5%,96.3%,119%,113%,120%,94.5%,2.2,0,0,0,0
CCOC(=O)[C@@H](N)Cc1ccc(-c2cc(O[C@H](c3ccc(Cl)cc3-n3ccc(C)n3)C(F)(F)F)nc(N)n2)cc1 [telotristat-ethyl],> 10 µM,> 10 µM,> 10 µM,> 10 µM,> 10 µM,97.7%,106%,94.5%,102%,113%,96.6%,99.7%,106%,91.1%,95.4%,96.6%,91.8%,95.2%,95.5%,107%,96.6%,93.5%,93.6%,100%,96.4%,97.3%,89.6%,104%,99.4%,88.6%,0,0,0,0,0
COc1cc2nc(N3CCN(C(=O)C4CCCO4)CC3)nc(N)c2cc1OC (stereo not given) [terazosin],> 10 µM,> 10 µM,> 10 µM,> 10 µM,> 10 µM,107%,96.7%,101%,103%,112%,96.1%,106%,105%,99.9%,96.3%,96.4%,95.4%,97%,92.9%,104%,97.8%,102%,96%,101%,103%,104%,95.3%,95.4%,92.5%,95.3%,0,0,0,0,0
C/C(O)=C(\C#N)C(=O)Nc1ccc(C(F)(F)F)cc1 [teriflunomide],> 10 µM,> 10 µM,> 10 µM,> 10 µM,> 10 µM,104%,107%,93.4%,98.1%,94.4%,104%,97.2%,95.3%,105%,94.2%,102%,101%,97.1%,98.2%,93.9%,102%,98%,102%,99.8%,99.7%,98.1%,98.2%,102%,95.1%,94.1%,0,0,0,0,0
COc1ccc(CN(CCN(C)C)c2ncccn2)cc1 [thonzylamine],> 10 µM,> 10 µM,> 10 µM,> 10 µM,> 10 µM,93.2%,103%,97.6%,102%,98.9%,96.2%,103%,96.9%,92.5%,101%,102%,102%,98.1%,104%,95.9%,97.2%,101%,96%,98.3%,105%,99.7%,104%,93.8%,101%,105%,0,0,0,0,0
C[N+]12CCCCC1CCC(=C(c1cccs1)c1cccs1)C2 (stereo not given) [tiquizium],> 10 µM,> 10 µM,> 10 µM,> 10 µM,> 10 µM,103%,86.9%,98.9%,93.7%,94%,100%,102%,97.8%,111%,99%,106%,88.6%,98.3%,87%,100%,98.1%,99.2%,94.3%,103%,102%,89.3%,96.3%,89.7%,90.3%,100%,0,0,0,0,0
CCCCNC(=O)NS(=O)(=O)c1ccc(C)cc1 [tolbutamide],> 10 µM,> 10 µM,> 10 µM,> 10 µM,> 10 µM,87.5%,98%,103%,94.3%,99.9%,95.1%,90.2%,95.7%,107%,94.3%,104%,103%,105%,102%,97.4%,101%,98.5%,99.2%,96.7%,98.6%,101%,96.7%,96.2%,96.3%,96.3%,0,0,0,0,0
